Assay results taken from patent publication US6296785A, “Indeno-fused photochromic naphthopyrans” (PPG Industries Ohio, Inc., priority 2000, dated 2001).

Experiments:
Format in all cases: physicochemical
[1] = Relative ΔOD at Saturation Test; details: ΔOD at saturation (Band A)/ΔOD at saturation (Band B)×100
Text: In accordance with the present invention, it has now been discovered that certain novel indeno[2,1-f]naphtho[1,2-b]pyrans having two absorption bands in the activated (colored) state, an acceptable fade rate, high activated intensity, a high coloration rate and a rating of 80 or higher in the Relative ΔOD at Saturation Test may be prepared. The Relative ΔOD at Saturation Test is described in Example 21. The ratings of the test are defined herein as the result obtained when the optical density of band "A" is divided by the optical density of band "B" and multiplied by 100. It is believed that compounds having a rating of 80 or higher are most valuable for formulating neutral grays, greens and browns for commercial photochromic ophthalmic eyeware.
(§1) Testing was done with the photochromic compounds described in Examples 1 through 20 and Comparative Examples 1 through 3 in the following manner. A quantity of photochromic compound calculated to yield a 1.5×10^-3 molal solution was added to a flask containing 50 grams of a monomer blend of 4 parts ethoxylated bisphenol A dimethacrylate (BPA 2EO DMA), 1 part poly(ethylene glycol) 600 dimethacrylate, and 0.033 weight percent 2,2'-azobis(2-methyl propionitrile) (AIBN). The photochromic compound was dissolved into the monomer blend by stirring and gentle heating, if necessary. After a clear solution was obtained, it was poured into a flat sheet mold having the interior dimensions of 2.2 mm×6 inches (15.24 cm)×6 inches (15.24 cm). The mold was sealed and placed in a horizontal air flow, programmable oven programmed to increase the temperature from 40° C. to 95° C. over a 5 hour interval, hold the temperature at 95° C. for 3 hours, lower it to 60° C. over a 2 hour interval and then hold it at 60° C. for 16 hours. After the mold was opened, the polymer sheet was cut using a diamond blade saw into 2 inch (5.1 centimeters) test squares.
(§2) The photochromic test squares of Part A were tested for photochromic response rates on an optical bench. Prior to testing on the optical bench, the photochromic test squares were exposed to 365 nanometer ultraviolet light for about 15 minutes to activate the photochromic compounds and then placed into a 76° C. oven for about 15 minutes to bleach the photochromic compounds. The test squares were then cooled to room temperature, exposed to fluorescent room lighting for at least 2 hours and then kept covered for at least 2 hours prior to testing on an optical bench maintained at 72° F. (22.2° C.). The bench was fitted with a 250 watt Xenon arc lamp, a remote controlled shutter, a copper sulfate bath acting as a heat sink for the arc lamp, a Schott WG-320 nm cut-off filter which removes short wavelength radiation; neutral density filter(s) and a sample holder in which the square to be tested was inserted. The power output of the optical bench, i.e., the dosage of light that the sample lens would be exposed to, was calibrated with a photochromic test square used as a reference standard. […] The UV-A detector was placed into the sample holder and the light output was measured. Adjustments to the power output were made by increasing or decreasing the lamp wattage or by adding or removing neutral density filters in the light path.
Change in optical density (ΔOD) was determined by inserting a test square in the bleached state into the sample holder, adjusting the transmittance scale to 100%, opening the shutter from the Xenon lamp to provide ultraviolet radiation to change the test square from the bleached state to an activated (i.e., darkened) state, measuring the transmittance in the activated state, and calculating the change in optical density according to the formula: ΔOD=log(100/% Ta), where % Ta is the percent transmittance in the activated state and the logarithm is to the base 10. […]

[2] = photochromic response of test squares on an optical bench (sensitivity, saturation optical density, bleach rate); details: for ΔOD @ Saturation (Band A) / ΔOD @ Saturation (Band B): UV exposure 15 minutes; for ΔOD @ Saturation (Band A) / Sensitivity ΔOD/MIN (Band A) / ΔOD @ Saturation (Band B) / Sensitivity ΔOD/MIN (Band B): 72° F. (22.2° C.), polymer test square; for Sensitivity ΔOD/MIN (Band A) / Sensitivity ΔOD/MIN (Band B): first five (5) seconds of UV exposure, expressed per minute; for Bleach Rate T 1/2: measured at band B, room temperature (72° F., 22.2° C.) after removal of activating light
Protocol: as §1, §2
A monitoring, collimated beam of light from a tungsten lamp was passed through the square at a small angle (approximately 30°) normal to the square. After passing through the square, the light from the tungsten lamp was directed to a detector through Spectral Energy Corp. GM-200 monochromator set at the previously determined visible lambda max of the photochromic compound being measured. The output signals from the detector were processed by a radiometer.
Change in optical density (ΔOD) was determined by inserting a test square in the bleached state into the sample holder, adjusting the transmittance scale to 100%, opening the shutter from the Xenon lamp to provide ultraviolet radiation to change the test square from the bleached state to an activated (i.e., darkened) state, measuring the transmittance in the activated state, and calculating the change in optical density according to the formula: ΔOD=log(100/% Ta), where % Ta is the percent transmittance in the activated state and the logarithm is to the base 10.
The ΔOD/Min, which represents the sensitivity of the photochromic compound's response to UV light, was measured over the first five (5) seconds of UV exposure, then expressed on a per minute basis. The saturation optical density (ΔOD@ Saturation) was taken under identical conditions as the ΔOD/Min, except UV exposure was continued for 15 minutes. […]

[3] = lambda max (Vis) of activated photochromic test squares in a Varian Cary 3 uv-visible spectrophotometer; details: activated form in test square
Protocol: as §1
The lambda max (Vis) is the wavelength in the visible spectrum at which the maximum absorption of the activated (colored) form of the photochromic compound in a test square occurs. The lambda max (Vis) wavelengths reported in Table 1 were determined by testing the photochromic test square polymerizates of Part A in a Varian Cary 3 uv-visible spectrophotometer. The bleach rate (T 1/2) is the time interval in seconds for the absorbance of the activated form of the photochromic compound in the test squares to read one half the highest absorbance at room temperature (72° F., 22.2° C.) after removal of the source of activating light.
For each lambda max visible, the corresponding optical density (Δ OD/Min and Δ OD at saturation) for the desired compounds of the Examples and Comparative Examples are tabulated in Table 1 for the two bands (A and B) of peak absorption for each compound. Table 1 also includes the bleach rate (T 1/2) for each of the compounds as measured at band B. The ratings of the Relative Δ OD at Saturation Test for the bands A and B of each of the Examples and Comparative Examples are calculated as follows: Δ OD at saturation (Band A)/Δ OD at saturation (Band B)×100.

Compound	Relative ΔOD at Saturation (rating) [1]	ΔOD @ Saturation (Band A) [2]	Sensitivity ΔOD/MIN (Band A) [2]	ΔOD @ Saturation (Band B) [2]	Sensitivity ΔOD/MIN (Band B) [2]	Bleach Rate T 1/2 [2]	λ MAX Vis (Band A) [3]	λ MAX Vis (Band B) [3]
CCC1(O)c2ccccc2-c2c1c1c(c3cc(OC)c(OC)cc23)OC(c2ccccc2)(c2ccc(N3CCOCC3)cc2)C=C1 (centres unmarked) [Example 14, 3-(4-morpholinophenyl)-3-phenyl-6,7-dimethoxy-13-hydroxy-13-ethyl-3H,13H-indeno[2,1,-f]naphtho[1,2-b]pyran]	103	0.41	0.24 ΔOD/MIN	0.40	0.22 ΔOD/MIN	1.8 min	485 nm	600 nm
CCCCC1(O)c2ccccc2-c2c1c1c(c3cc(OC)c(OC)cc23)OC(c2ccc(OC)cc2)(c2ccc(OC)cc2)C=C1 (centres unmarked) [Example 15, 3,3-di(4-methoxyphenyl)-6,7-dimethoxy-13-hydroxy-13-butyl-3H,13H-indeno[2,1,-f]naphtho[1,2-b]pyran]	168	0.37	0.29 ΔOD/MIN	0.22	0.18 ΔOD/MIN	1.27 min	457 nm	579 nm
CCCCC1(O)c2ccccc2-c2c1c1c(c3cc(OC)c(OC)cc23)OC(c2ccccc2)(c2ccc(N3CCOCC3)cc2)C=C1 (centres unmarked) [Example 16, 3-(4-morpholinophenyl)-3-phenyl-6,7-dimethoxy-13-hydroxy-13-butyl-3H,13H-indeno[2,1,-f]naphtho[1,2-b]pyran]	106	0.37	0.22 ΔOD/MIN	0.35	0.19 ΔOD/MIN	1.88 min	485 nm	600 nm
CCC1(O)c2ccccc2-c2c1c1c(c3cc(OC)c(OC)cc23)OC(c2ccc(OC)cc2)(c2ccc(N3CCOCC3)cc2)C=C1 (centres unmarked) [Example 17, 6,7-dimethoxy-3-(4-methoxyphenyl)-3-(4-morpholinophenyl)-13-hydroxy-13-ethyl-3H,13H-indeno[2,1-f]naphtho[1,2-b]pyran]	104	0.25	0.21 ΔOD/MIN	0.24	0.18 ΔOD/MIN	1.4 min	480 nm	603 nm

Results, then the compound that gave them:

Relative ΔOD at Saturation (rating) [1]	ΔOD @ Saturation (Band A) [2]	Sensitivity ΔOD/MIN (Band A) [2]	ΔOD @ Saturation (Band B) [2]	Sensitivity ΔOD/MIN (Band B) [2]	Bleach Rate T 1/2 [2]	λ MAX Vis (Band A) [3]	λ MAX Vis (Band B) [3]	Compound
100	0.27	0.21 ΔOD/MIN	0.27	0.18 ΔOD/MIN	1.43 min	483 nm	604 nm	CCC1(OC)c2ccccc2-c2c1c1c(c3cc(OC)c(OC)cc23)OC(c2ccc(OC)cc2)(c2ccc(N3CCOCC3)cc2)C=C1 (centres unmarked) [Example 18, 3-(4-methoxyphenyl)-3-(4-morpholinophenyl)-6,7-dimethoxy-13-ethyl-13-methoxy-3H,13H-indeno[2,1-f]naphtho[1,2-b]pyran]
97	0.34	0.18 ΔOD/MIN	0.35	0.22 ΔOD/MIN	1.63 min	481 nm	603 nm	COc1ccc(C2(c3ccc(N4CCOCC4)cc3)C=Cc3c4c(c5cc(OC)c(OC)cc5c3O2)-c2ccccc2C4(C)O)cc1 (centres unmarked) [Example 19, 3-(4-methoxyphenyl)-3-(4-morpholinophenyl)-6,7-dimethoxy-13-hydroxy-13-methyl-3H,13H-indeno[2,1-f]naphtho[1,2-b]pyran]
92	0.34	0.16 ΔOD/MIN	0.37	0.17 ΔOD/MIN	1.75 min	483 nm	604 nm	COc1ccc(C2(c3ccc(N4CCOCC4)cc3)C=Cc3c4c(c5cc(OC)c(OC)cc5c3O2)-c2ccccc2C4(C)OC)cc1 (centres unmarked) [Example 20, 3-(4-methoxyphenyl)-3-(4-morpholinophenyl)-6,7-dimethoxy-13-methoxy-13-methyl-3H,13H-indeno[2,1-f]naphtho[1,2-b]pyran]
